Experimental data: PubChem BioAssay (NCI)
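Cultured in 96-well plates, cells were exposed to test compound for 48 hours across five concentrations. At the TGI there is no net growth.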

Legend:
Assay in all cases: inhibition of tumour cell growth, NCI panel, 48 h
[1] = test system: 786-0 renal
[2] = test system: A498 renal
[3] = test system: A549 NSCLC
[4] = test system: ACHN renal
[5] = test system: BT-549 breast
[6] = test system: CAKI-1 renal
[7] = test system: CCRF-CEM leukemia
[8] = test system: COLO 205 colon
[9] = test system: DU-145 prostate
[10] = test system: EKVX NSCLC
[11] = test system: HCC-2998 colon
[12] = test system: HCT-116 colon
[13] = test system: HCT-15 colon
[14] = test system: HOP-62 NSCLC
[15] = test system: HOP-92 NSCLC
[16] = test system: HS 578T breast
[17] = test system: HT29 colon
[18] = test system: IGROV1 ovarian
[19] = test system: KM12 colon
[20] = test system: LOX IMVI melanoma
[21] = test system: M14 melanoma
[22] = test system: MALME-3M melanoma
[23] = test system: MCF7 breast
[24] = test system: MDA-MB-231 breast
[25] = test system: MDA-MB-435
[26] = test system: MDA-N
[27] = test system: MOLT-4 leukemia
[28] = test system: NCI-H226 lung
[29] = test system: NCI-H23 lung
[30] = test system: NCI-H522 lung
[31] = test system: NCI/ADR-RES ovarian
[32] = test system: OVCAR-3 ovarian
[33] = test system: OVCAR-4 ovarian
[34] = test system: OVCAR-5 ovarian
[35] = test system: OVCAR-8 ovarian
[36] = test system: PC-3 prostate
[37] = test system: RPMI-8226 leukemia
[38] = test system: RXF 393 renal
[39] = test system: SF-268 CNS
[40] = test system: SF-295 CNS
[41] = test system: SF-539 CNS
[42] = test system: SK-MEL-2 melanoma
[43] = test system: SK-MEL-28 melanoma
[44] = test system: SK-MEL-5 melanoma
[45] = test system: SK-OV-3 ovarian
[46] = test system: SN12C renal
[47] = test system: SNB-19 CNS
[48] = test system: SNB-75 CNS
[49] = test system: SW-620 colon
[50] = test system: T-47D breast
[51] = test system: TK-10 renal
[52] = test system: U251 CNS
[53] = test system: UACC-257 melanoma
[54] = test system: UACC-62 melanoma
[55] = test system: UO-31 renal
[56] = test system: K-562 leukemia
[57] = test system: NCI-H460 lung
[58] = test system: SR leukemia

Structure (SMILES): Cc1ccc(-n2cnc3c(N)nc(N)nc32)cc1
- TGI [1]: > 100 µM
- TGI [2]: > 100 µM
- TGI [3]: > 100 µM
- TGI [4]: > 100 µM
- TGI [5]: > 100 µM
- TGI [6]: > 100 µM
- TGI [7]: > 100 µM
- TGI [8]: > 100 µM
- TGI [9]: > 100 µM
- TGI [10]: > 100 µM
- TGI [11]: > 100 µM
- TGI [12]: > 100 µM
- TGI [13]: > 100 µM
- TGI [14]: > 100 µM
- TGI [15]: > 100 µM
- TGI [16]: > 100 µM
- TGI [17]: > 100 µM
- TGI [18]: > 100 µM
- TGI [19]: > 100 µM
- TGI [20]: > 100 µM
- TGI [21]: > 100 µM
- TGI [22]: > 100 µM
- TGI [23]: > 100 µM
- TGI [24]: > 100 µM
- TGI [25]: > 100 µM
- TGI [26]: > 100 µM
- TGI [27]: > 100 µM
- TGI [28]: > 100 µM
- TGI [29]: > 100 µM
- TGI [30]: > 100 µM
- TGI [31]: > 100 µM
- TGI [32]: > 100 µM
- TGI [33]: > 100 µM
- TGI [34]: > 100 µM
- TGI [35]: > 100 µM
- TGI [36]: > 100 µM
- TGI [37]: > 100 µM
- TGI [38]: > 100 µM
- TGI [39]: > 100 µM
- TGI [40]: > 100 µM
- TGI [41]: > 100 µM
- TGI [42]: > 100 µM
- TGI [43]: > 100 µM
- TGI [44]: > 100 µM
- TGI [45]: > 100 µM
- TGI [46]: > 100 µM
- TGI [47]: > 100 µM
- TGI [48]: > 100 µM
- TGI [49]: > 100 µM
- TGI [50]: > 100 µM
- TGI [51]: > 100 µM
- TGI [52]: > 100 µM
- TGI [53]: > 100 µM
- TGI [54]: > 100 µM
- TGI [55]: > 100 µM

Structure (SMILES): C=C1C(=O)OC2/C=C(\CO)C3OC3C3OC3(C)CC(OC(=O)/C(=C/C)CO)C12 (stereo not drawn)
- TGI [1]: > 100 µM
- TGI [2]: > 100 µM
- TGI [3]: > 100 µM
- TGI [4]: > 100 µM
- TGI [5]: > 100 µM
- TGI [6]: 77.4 µM
- TGI [7]: > 100 µM
- TGI [8]: > 100 µM
- TGI [9]: > 100 µM
- TGI [10]: > 100 µM
- TGI [11]: > 100 µM
- TGI [12]: > 100 µM
- TGI [13]: > 100 µM
- TGI [14]: > 100 µM
- TGI [15]: > 100 µM
- TGI [16]: > 100 µM
- TGI [17]: > 100 µM
- TGI [18]: > 100 µM
- TGI [56]: 65.4 µM
- TGI [19]: > 100 µM
- TGI [20]: > 100 µM
- TGI [21]: > 100 µM
- TGI [22]: 68.6 µM
- TGI [23]: > 100 µM
- TGI [24]: > 100 µM
- TGI [25]: > 100 µM
- TGI [26]: > 100 µM
- TGI [27]: 84.3 µM
- TGI [28]: > 100 µM
- TGI [29]: > 100 µM
- TGI [57]: > 100 µM
- TGI [30]: 45.6 µM
- TGI [31]: > 100 µM
- TGI [32]: > 100 µM
- TGI [33]: > 100 µM
- TGI [34]: > 100 µM
- TGI [35]: > 100 µM
- TGI [36]: > 100 µM
- TGI [37]: 45.7 µM
- TGI [38]: > 100 µM
- TGI [39]: > 100 µM
- TGI [40]: > 100 µM
- TGI [41]: > 100 µM
- TGI [42]: > 100 µM
- TGI [43]: > 100 µM
- TGI [44]: > 100 µM
- TGI [45]: > 100 µM
- TGI [46]: > 100 µM
- TGI [47]: > 100 µM
- TGI [48]: > 100 µM
- TGI [58]: 89 µM
- TGI [49]: > 100 µM
- TGI [50]: > 100 µM
- TGI [51]: > 100 µM
- TGI [52]: > 100 µM
- TGI [53]: > 100 µM
- TGI [54]: > 100 µM
- TGI [55]: > 100 µM
